The values that follow come from article PMC5578999, “Novel quinolone chalcones targeting colchicine-binding pocket kill multidrug-resistant cancer cells by inhibiting tubulin activity and MRP1 function” (Scientific Reports, 2017).

Several values for one entry are separate records, joined by “and”; a condition that tells them apart may be missing. Equal entries are not always repeated.

Assay [1] concerns centrosomes. The assay is described as follows: Distance between two centrosomes by fluorescence microscopy. The class given is cell-based. Conditions: 3.0 μmol/L CTR-17. Here is the method:
and Lee, 2008). The reversibility of drug effects was carried out as follow: He La cells treated
with CTR-17 or CTR-20 for 12 hours were w ashed twice with 1 × PBS and then releas ed into
pre-w armed complet emedium . Subsequentl y, c ell s were h arvested at scheduled time points to
ex amine their DNA profi les /cell c ycle positions by flow c ytometr y.
Immunofluorescencestai ning was car ried out as d escribed previousl y (Santi and Lee,
2011).Photograph y was carri ed out with a Carl Zeiss 510 Meta l aser s cann ing microscop e or an
Axioscope,and images were captur ed with LSM image examiner (Carl Zeiss, North York, ON,
Canada). For immunostaining , a background cont rol (without secondar y antibody) and bleed-
through controls (cells labeled with each fluorophore separatel y) were used to avoid inaccur ate
interpretation of dat a due to artifacts. A minimum of 10 fields per coverslip and 200 cells for
quantitative cell anal ysis were captur ed. Each ex periment was r epeat ed at l east twice. Western
blotting was carried out as described previousl y (Santi and Lee, 2010).
Molecular Operating Environment (MOE) (Chemi cal Computing Group Inc, Montreal, […]
The best docking pose was determined based on t he minimum free energy for binding. […]
hours or 24hours . The m itotic index was determined b y fluorescence micro scop y with counting […]

The target in assay [2] is T1, MRP1 (Homo sapiens, UniProt P33527).
T1 construct: expressed in transfected cells; host or cells: HEK293-MRP1 (gift of Dr. Susan Cole)
The assay is described as follows: Calcein-AM retention assay, HEK293-MRP1 cells. The assay is classed as cell-based. As to conditions: 22 µmol/L, DMSO control 52%.

T1 sequence (P33527 whole entry): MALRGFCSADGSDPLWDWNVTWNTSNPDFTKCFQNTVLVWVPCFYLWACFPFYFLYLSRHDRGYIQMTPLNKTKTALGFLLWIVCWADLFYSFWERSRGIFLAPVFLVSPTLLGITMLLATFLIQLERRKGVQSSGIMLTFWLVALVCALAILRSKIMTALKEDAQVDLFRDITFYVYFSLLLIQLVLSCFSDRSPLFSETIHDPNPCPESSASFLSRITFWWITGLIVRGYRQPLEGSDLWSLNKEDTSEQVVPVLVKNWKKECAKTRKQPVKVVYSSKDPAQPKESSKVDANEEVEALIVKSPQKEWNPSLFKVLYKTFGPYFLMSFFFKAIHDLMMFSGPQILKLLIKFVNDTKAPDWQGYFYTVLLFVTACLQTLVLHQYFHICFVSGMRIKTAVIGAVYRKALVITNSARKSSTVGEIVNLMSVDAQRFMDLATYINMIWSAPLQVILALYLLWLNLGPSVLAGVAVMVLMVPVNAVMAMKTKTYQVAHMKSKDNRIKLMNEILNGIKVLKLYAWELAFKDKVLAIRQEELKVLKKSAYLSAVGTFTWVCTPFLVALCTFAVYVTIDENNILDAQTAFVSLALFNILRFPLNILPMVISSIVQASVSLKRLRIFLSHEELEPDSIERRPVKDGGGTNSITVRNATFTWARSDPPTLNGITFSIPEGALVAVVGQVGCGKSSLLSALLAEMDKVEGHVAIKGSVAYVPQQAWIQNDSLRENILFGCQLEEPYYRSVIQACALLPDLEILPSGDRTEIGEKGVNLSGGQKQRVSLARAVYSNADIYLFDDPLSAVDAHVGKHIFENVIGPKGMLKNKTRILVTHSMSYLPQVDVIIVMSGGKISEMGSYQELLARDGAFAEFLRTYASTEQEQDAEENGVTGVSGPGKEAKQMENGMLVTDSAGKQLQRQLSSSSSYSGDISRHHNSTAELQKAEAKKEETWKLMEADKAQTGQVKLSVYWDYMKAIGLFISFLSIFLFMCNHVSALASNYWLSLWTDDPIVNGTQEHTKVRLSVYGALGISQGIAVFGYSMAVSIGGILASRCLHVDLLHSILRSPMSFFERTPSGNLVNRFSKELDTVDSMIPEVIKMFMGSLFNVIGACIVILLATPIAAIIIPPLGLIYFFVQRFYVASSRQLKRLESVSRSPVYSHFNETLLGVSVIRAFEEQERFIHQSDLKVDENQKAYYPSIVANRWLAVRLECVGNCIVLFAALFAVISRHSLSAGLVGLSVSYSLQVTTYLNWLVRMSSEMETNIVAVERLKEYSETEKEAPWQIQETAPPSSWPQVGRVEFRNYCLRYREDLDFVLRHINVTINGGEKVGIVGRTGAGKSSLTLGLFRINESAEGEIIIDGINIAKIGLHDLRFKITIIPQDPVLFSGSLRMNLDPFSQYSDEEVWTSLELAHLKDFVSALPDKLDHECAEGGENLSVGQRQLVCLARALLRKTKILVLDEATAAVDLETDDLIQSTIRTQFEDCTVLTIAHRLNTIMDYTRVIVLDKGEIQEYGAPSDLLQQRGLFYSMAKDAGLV

As for `COc1ccccc1C(=O)/C=C/c1cc2ccccc2[nH]c1=O` [CTR-17, (E)-3-(3-(2-Methoxyphenyl)-3-oxoprop-1-enyl)quinolin-2(1H)-one], in assay [1], the distance between two centrosomes turned out to be 4.83 ± 0.36 µm; the “distance between two centrosomes shorter than sham control” value is ~ 35% and 35%.

Regarding `COc1ccc2[nH]c(=O)c(/C=C/C(=O)c3ccccc3OC)cc2c1` [CTR-20, (E)-6-Methoxy-3-(3-(2-methoxyphenyl)-3-oxoprop-1-enyl) quinolin-2(1H)-one], in assay [2], the “calcein-AM retained in the cells” value is 72%.
